From patent publication US20240336658A1, “CYCLIC PEPTIDE AND PREPARATION METHOD AND USE THEREOF” (HANGZHOU HUIBO SCIENCE AND TECHNOLOGY CO., LTD, priority 2021, published 2024)

Assays:
fibroblasts (NIH/3T3) [1] = test: Scratch experiment, Hst1-MAD cyclic peptides (Example 23); assay type: cell-based; settings: dose required to achieve the same pharmaceutical effect in the scratch experiment
Text: In this example, the propargylglycine-Hst1-MAD cyclic peptide, the homopropargylglycine-Hst1-MAD cyclic peptide, the dihomopropargylglycine-Hst1-MAD cyclic peptide and the linear Hst1 prepared in Examples 13, 14, and 15, and the Hst1-MAD head-to-tail cyclic peptide or N-terminal and C-terminal cyclized peptide prepared by the amide bond cyclization method provided by the literature of for example Sortase A as a tool for high-yield histatin cyclization, Jan G. M. Bolscher, The FASEB Journal. Research Communication, were adopted respectively, the reaction time was recorded, the yield of the reaction product was detected by HPLC, the proportion of side reactions in the reaction product was calculated, and activity comparison was performed. The activity comparison method was to calculate the dose required to achieve the same pharmaceutical effect through a scratch experiment. […] After 12 hours and 24 hours of culture, the scratched area of each group was calculated by using imageJ (Rawak Software, Inc. Germany) software, and the scratch area at 0 hour was an initial scratch area. The scratch healing rate was calculated in the following manner: W % (scratch healing rate)=(W0−Wt)/W0×100%, where W0=an initial scratch area, and Wt=a remaining scratch area; and the results were as shown in Table 14.

fibroblasts (NIH/3T3) [2] = test: Scratching experiment, Hst1 cyclic peptides (Examples 11 and 12); assay type: cell-based; settings: dosage needed to achieve the same pharmaceutical effect in the scratch experiment
Protocol: At the same time, fibroblasts (NIH/3T3; GNM 6; Chinese Academy of Sciences, China) were plated into a 6-well plate at a number of 2×10^6/well and cultured to a density of 70-80%. The cells were starved for 8-12 hours before the experiment. Mitomycin C (Sigma Aldrich, USA) was added into the culture medium to make its concentration in the culture medium be 15 μg/ml, and the culture medium was changed after 3 hours of treatment. Scratching was conducted with a 200 μl pipette tip perpendicular to the bottom of the well-plate with the same force, and the well-plate was rinsed with PBS twice after scratching. Each well was added with an appropriate amount of a DEME medium (10% FBS, 1% double antibody), and except for the blank control group, each well was added with 10 μM of the linear Hst1, 0.01 μM of the propynylglycine-Hst1 cyclic peptide, 0.1 μM of the propynylglycine-Hst1 cyclic peptide and 1 μM of the propynylglycine-Hst1 cyclic peptide as experimental groups. At 0 hour, the cells in each group were photographed by using a microscope (Olympus, Japan). […] The scratched area of each group was calculated by using imageJ (Rawak Software, Inc. Germany) software, and the scratch area at 0 hour was an initial scratch area. The scratch healing rate was calculated as follows: […]

Q: How did the “Dosage of agents required for scratch test” value (fibroblasts (NIH/3T3) [1]) turn out when “Linear Hst1: linear peptide Hst1 (Histatin1), amino acid sequence SEQ ID NO.1” was run?
A: 10 µM

Q: What about the “Dosage of agents required for scratch test” value (fibroblasts (NIH/3T3) [2]) of the same substance?
A: 10 µM
